Key:
[1] = Stability of GLP-1 and its analogues in human serum; conditions: 25% (v/v) human serum; for Remaining peak area (%)/human serum: 0.0 h, peptide 0.03 mM, 37° C.; for remaining at 0.5 h, 0.03 mM / remaining at 2 h, 0.03 mM / remaining at 4 h, 0.03 mM / remaining at 8 h, 0.03 mM / remaining at 12 h, 0.03 mM: human, pH 7
[2] = target: DPP-IV (Homo sapiens, UniProt P27487); assay: Tolerance of GLP-1 and its analogues to DPP-IV (RP-HPLC remaining peak area); format: in vitro ADME; conditions: peptide 25 μM, DPP-IV 0.5 ng/μL, 37° C.; for Remaining peak area (%)/DPP-IV: 0.0 h; for remaining at 0.5 h, 25 μM / remaining at 2 h, 25 μM / remaining at 4 h, 25 μM / remaining at 8 h, 25 μM / remaining at 12 h, 25 μM: isolated DPP-IV enzyme in buffer, pH 8
Protocol: Mix by centrifugation at 8000 rpm for 30 seconds.
(2) Arrange a certain volume of 0.005 μg/μL DPP-IV solution in another sterile EP.

[3] = target: chymotrypsin (Bos taurus, UniProt P00766); assay: in vitro; conditions: for remaining at 0.025 h, 60 μM / remaining at 0.05 h, 60 μM / remaining at 0.075 h, 60 μM / remaining at 0.1 h, 60 μM / remaining at 0.15 h, 60 μM / remaining at 0.25 h, 60 μM / remaining at 0.5 h, 60 μM / remaining at 1 h, 60 μM: isolated enzyme chymotrypsin, pH 7.8, Remaining peak area (%)/chymotrypsin
Summary of the method: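 Peptide and 0.05 μg/μL chymotrypsin were preincubated at 37 °C for 5 min, then mixed. Aliquots taken from 1.5 up to 60.0 min were quenched with 10% TFA, and remaining peptide was measured as RP-HPLC peak area.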

Sequence of DPP-IV (P27487 whole entry, species assumed): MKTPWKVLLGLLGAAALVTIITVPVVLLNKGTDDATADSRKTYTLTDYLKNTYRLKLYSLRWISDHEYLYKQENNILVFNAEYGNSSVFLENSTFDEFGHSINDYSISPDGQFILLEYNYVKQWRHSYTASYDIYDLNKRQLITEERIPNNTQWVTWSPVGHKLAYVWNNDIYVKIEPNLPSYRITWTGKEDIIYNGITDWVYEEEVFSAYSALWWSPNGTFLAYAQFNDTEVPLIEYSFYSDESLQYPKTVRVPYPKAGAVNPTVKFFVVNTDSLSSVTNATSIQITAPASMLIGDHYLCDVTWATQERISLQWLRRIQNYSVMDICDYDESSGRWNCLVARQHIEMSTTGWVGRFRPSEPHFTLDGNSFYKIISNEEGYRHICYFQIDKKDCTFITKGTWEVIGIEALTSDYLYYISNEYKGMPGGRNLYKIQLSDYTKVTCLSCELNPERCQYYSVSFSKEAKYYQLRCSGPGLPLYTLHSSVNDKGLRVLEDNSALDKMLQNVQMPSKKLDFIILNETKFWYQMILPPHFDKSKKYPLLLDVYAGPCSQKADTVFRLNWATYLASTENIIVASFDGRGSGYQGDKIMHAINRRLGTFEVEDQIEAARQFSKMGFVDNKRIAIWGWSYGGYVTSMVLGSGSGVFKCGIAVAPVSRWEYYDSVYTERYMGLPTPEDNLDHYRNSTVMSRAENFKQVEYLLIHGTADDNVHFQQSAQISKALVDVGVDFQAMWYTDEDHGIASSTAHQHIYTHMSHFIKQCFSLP

Remaining peak area (%)/human serum [1] [%] | remaining at 0.5 h, 0.03 mM [1] [%] | remaining at 2 h, 0.03 mM [1] [%] | remaining at 4 h, 0.03 mM [1] [%] | remaining at 8 h, 0.03 mM [1] [%] | remaining at 12 h, 0.03 mM [1] [%] | remaining at 0.025 h, 60 μM [3] [%] | remaining at 0.05 h, 60 μM [3] [%] | remaining at 0.075 h, 60 μM [3] [%] | remaining at 0.1 h, 60 μM [3] [%] | remaining at 0.15 h, 60 μM [3] [%] | remaining at 0.25 h, 60 μM [3] [%] | remaining at 0.5 h, 60 μM [3] [%] | remaining at 1 h, 60 μM [3] [%] | SMILES | Remaining peak area (%)/DPP-IV [2] [%] | remaining at 0.5 h, 25 μM [2] [%] | remaining at 2 h, 25 μM [2] [%] | remaining at 4 h, 25 μM [2] [%] | remaining at 8 h, 25 μM [2] [%] | remaining at 12 h, 25 μM [2] [%] | other results
100.0 ± 0.0 | 74.4 ± 5.5 | 54.8 ± 2.1 | 26.2 ± 2.9 | 7.3 ± 1 | 0.8 | 59.7 ± 2.1 | 59.1 ± 4.5 | 54.5 ± 1.2 | 57.3 ± 1.5 | 56.3 ± 4.7 | 54 ± 4.7 | 57.4 ± 4 | 59.4 ± 2.1 | CC[C@H](C)[C@H](NC(=O)[C@H](Cc1ccccc1)NC(=O)[C@H](CCC(=O)O)NC(=O)[C@H](CCCCN)NC(=O)[C@H](C)NC(=O)[C@H](C)NC(=O)[C@H](CCC(N)=O)NC(=O)CNC(=O)[C@H](CCC(=O)O)NC(=O)[C@H](CC(C)C)NC(=O)[C@H](Cc1ccc(O)cc1)NC(=O)[C@H](CO)NC(=O)[C@H](CO)NC(=O)[C@@H](NC(=O)[C@H](CC(=O)O)NC(=O)[C@H](CO)NC(=O)[C@@H](NC(=O)[C@H](Cc1ccccc1)NC(=O)[C@@H](NC(=O)CNC(=O)[C@H](CCC(=O)O)NC(=O)[C@H](C)NC(=O)[C@H](Cc1c[nH]cn1)NC(=O)CNC(=O)CNC(=O)[C@@H](NC(=O)[C@@H]1CCCN1C(=O)[C@@H](NC(=O)CNC(=O)CNC(=O)[C@H](Cc1ccc(O)cc1)NC(=O)[C@@H]1CSSC[C@H](NC(=O)[C@@H](N)Cc2ccccc2)C(=O)N[C@@H]([C@@H](C)O)C(=O)N[C@@H](Cc2ccc(O)cc2)C(=O)N[C@@H](CO)C(=O)N[C@@H]([C@@H](C)CC)C(=O)N2CCC[C@H]2C(=O)N2CCC[C@H]2C(=O)N[C@@H](CCC(N)=O)C(=O)N1)[C@@H](C)CC)[C@@H](C)CC)[C@@H](C)O)[C@@H](C)O)C(C)C)C(=O)N[C@@H](C)C(=O)N[C@@H](Cc1c[nH]c2ccccc12)C(=O)N[C@@H](CC(C)C)C(=O)N[C@H](C(=O)N[C@@H](CCCCN)C(=O)NCC(=O)N[C@@H](CCCNC(=N)N)C(=O)NCC(=O)NCC(=O)N[C@@H](CCCCN)C(=O)O)C(C)C [CH10-D-GLP-1] | 100.0 ± 0.0 | 91.2 ± 3.2 | 94.1 ± 2.3 | 86.8 ± 0.8 | 84.1 ± 6.7 | 81.8 ± 0.6 | –
100.0 ± 0.0 | 106 ± 15.8 | 97.6 ± 5.4 | 83 ± 3.1 | 64 ± 6.8 | 58.2 ± 10 | 80.9 ± 1.7 | 78 ± 2.9 | 83.2 ± 0.3 | 83.9 ± 3 | 82.4 ± 3.9 | 78.5 ± 2.1 | 81.3 ± 2.8 | 76.3 ± 2.7 | CC[C@H](C)[C@H](NC(=O)[C@H](Cc1ccccc1)NC(=O)[C@H](CCC(=O)O)NC(=O)[C@H](CCCCN)NC(=O)[C@H](C)NC(=O)[C@H](C)NC(=O)[C@H](CCC(N)=O)NC(=O)CNC(=O)[C@H](CCC(=O)O)NC(=O)[C@H](CC(C)C)NC(=O)[C@H](Cc1ccc(O)cc1)NC(=O)[C@H](CO)NC(=O)[C@H](CO)NC(=O)[C@@H](NC(=O)[C@H](CC(=O)O)NC(=O)[C@H](CO)NC(=O)[C@@H](NC(=O)[C@H](Cc1ccccc1)NC(=O)[C@@H](NC(=O)CNC(=O)[C@H](CCC(=O)O)NC(=O)[C@H](C)NC(=O)[C@H](Cc1c[nH]cn1)NC(=O)CNC(=O)CNC(=O)[C@@H](NC(=O)[C@@H]1CCCN1C(=O)[C@@H](NC(=O)CN)[C@@H](C)CC)[C@@H](C)CC)[C@@H](C)O)[C@@H](C)O)C(C)C)C(=O)N[C@@H](C)C(=O)N[C@@H](Cc1c[nH]c2ccccc12)C(=O)N[C@@H](CC(C)C)C(=O)N[C@H](C(=O)N[C@@H](CCCCN)C(=O)NCC(=O)N[C@@H](CCCNC(=N)N)C(=O)NCC(=O)NCC(=O)N[C@@H](CCCCN)C(=O)NCC(=O)N[C@@H](CO)C(=O)N[C@H]1CSSC[C@@H](C(=O)N[C@@H](Cc2ccc(O)cc2)C(=O)NCC(=O)O)NC(=O)[C@H](CCC(N)=O)NC(=O)[C@@H]2CCCN2C(=O)[C@@H]2CCCN2C(=O)[C@H]([C@@H](C)CC)NC(=O)[C@H](CO)NC(=O)[C@H](Cc2ccc(O)cc2)NC(=O)[C@H]([C@@H](C)O)NC1=O)C(C)C [D-GLP-1-CH4] | 100.0 ± 0.0 | 81.6 ± 1.9 | 76.4 ± 4.2 | 80.8 ± 1.4 | 75.1 ± 2.4 | 71 ± 3 | –
100.0 ± 0.0 | 98.4 ± 7.3 | 94.6 ± 2.1 | 101 ± 5.5 | 91.6 ± 6.8 | 43.7 ± 2.1 | 33.4 ± 1.7 | 32.6 ± 0.7 | 28.9 ± 1.1 | 31.9 ± 2.9 | 31.3 ± 0.8 | 30.9 ± 1 | 32.6 ± 0.6 | 36.2 ± 1.4 | CC[C@H](C)[C@H](NC(=O)[C@H](Cc1ccccc1)NC(=O)[C@H](CCC(=O)O)NC(=O)[C@H](CCCCN)NC(=O)[C@H](C)NC(=O)[C@H](C)NC(=O)[C@H](CCC(N)=O)NC(=O)CNC(=O)[C@H](CCC(=O)O)NC(=O)[C@H](CC(C)C)NC(=O)[C@H](Cc1ccc(O)cc1)NC(=O)[C@H](CO)NC(=O)[C@H](CO)NC(=O)[C@@H](NC(=O)[C@H](CC(=O)O)NC(=O)[C@H](CO)NC(=O)[C@@H](NC(=O)[C@H](Cc1ccccc1)NC(=O)[C@@H](NC(=O)CNC(=O)[C@H](CCC(=O)O)NC(=O)[C@H](C)NC(=O)[C@H](Cc1c[nH]cn1)NC(=O)CNC(=O)CNC(=O)[C@@H](NC(=O)[C@@H]1CCCN1C(=O)[C@@H](NC(=O)CN)[C@@H](C)CC)[C@@H](C)CC)[C@@H](C)O)[C@@H](C)O)C(C)C)C(=O)N[C@@H](C)C(=O)N[C@@H](Cc1c[nH]c2ccccc12)C(=O)N[C@@H](CC(C)C)C(=O)N[C@H](C(=O)N[C@@H](CCCCN)C(=O)NCC(=O)N[C@@H](CCCNC(=N)N)C(=O)NCC(=O)NCC(=O)N[C@@H](CCCCN)C(=O)NCC(=O)N[C@@H](Cc1ccccc1)C(=O)N[C@H]1CSSC[C@@H](C(=O)N[C@@H](Cc2ccc(O)cc2)C(=O)NCC(=O)O)NC(=O)[C@H](CCC(N)=O)NC(=O)[C@@H]2CCCN2C(=O)[C@@H]2CCCN2C(=O)[C@H]([C@@H](C)CC)NC(=O)[C@H](CO)NC(=O)[C@H](Cc2ccc(O)cc2)NC(=O)[C@H]([C@@H](C)O)NC1=O)C(C)C [D-GLP-1-CH10] | 100.0 ± 0.0 | 64.9 ± 3.7 | 66.2 ± 1 | 69.3 ± 3.3 | 70.8 ± 0.4 | 74.4 ± 0.3 | serum stability (in words) [1]: more stable in serum; stability towards chymotrypsin hydrolysis (in words) [3]: lower residual amount

From US20230416329A1, “A PEPTIDE WITH DISULFIDE BONDS AND INHIBITORY ACTIVITY AGAINST SERINE PROTEASES, DERIVED HYBRID PEPTIDES THEREOF, AND USES THEREOF” (INSTITUTE OF MATERIA MEDICA , CHINESE ACADEMY OF MEDICAL …, priority 2020, published 2023)
